These are literature values, as cited in US20040259949A1, “Method” (priority 2001, published 2004).

Data set [1] concerns normal human fibroblasts.
For data set [2] the following is noted: mice.
The conditions of data set [3]: rat model.

As to `NCC(=O)CCC(=O)O` [5-ALA, 5-amino-4-oxo-pentanoic acid], in data set [1], the “effect of PDT on viability of normal human fibroblasts” value is recorded as “no effect on viability of normal human fibroblasts”. In addition, in data set [2], the “effect of PDT on healing of colonic anastomosis” value is given as “no significant impairment in healing of colonic anastomosis”. As for “benzoporphyrin derivative monoacid ring A [BDP-MA]”, in data set [3], the “influence of PDT on skin wound healing” value is listed as “did not influence skin wound healing”.
